Assay results taken from patent publication US6797255B1, “Methods and compositions for enhancing magnetic resonance imaging” (Mallinckrodt Inc., priority 1985, dated 2004).

Columns and labels:
[1] = Toxicity profile of the gadolinium complex; conditions: in vivo
liver = test: T1 and T2 lowering effects of the gadolinium complex in the liver; conditions: in vivo
[2] = Solubility of the complex in water; assay type: physicochemical
Protocol: (§1) The complex, dihydrogen bis(N-[N′-(2,6-diisopropylphenyl)carbamoylmethyl]iminodiaceto)manganese(II) hydrate, was thus isolated as the hydrated species. The solubility of the complex in water was determined to be approximately 0.1% w/v. The relaxation parameters T1 and T2 of a 10-^−3M solution of the complex in a 90 MHz NMR experiment were determined to be 0.107 sec. and 0.007 sec. respectively. The T1 and T2 values for water are 2.51 sec. and 0.150 sec., respectively.
(§2) The relaxation parameters T1 and T2 of a 10^−3M solution of the complex in a 90 MHz NMR experiment were determined to be 126 milliseconds and 1.5 milliseconds, respectively.

[3] = Relaxation parameters T1 and T2 of a 10^−3M solution in a 90 MHz NMR experiment; assay type: physicochemical; conditions: 10-^−3M solution
Protocol: as §1, §2

Compound | LD50 [1] | toxicity profile [1] | T1 and T2 lowering effects in the liver (liver) | solubility of the complex in water [2] | relaxation parameter T1 [3] [s] | relaxation parameter T2 [3] [s]
Cc1cccc(C)c1NC(=O)CN(CC(=O)[O-])CC(=O)O.Cc1cccc(C)c1NC(=O)CN(CC(=O)[O-])CC(=O)[O-].O.O.[Gd+3] [hydrogen bis(N-[N′-(2,6-dimethylphenyl)carbamoylmethyl]iminodiaceto)gadolinium(III) dihydrate] | about 0.2 mmol/kg | persistent, delayed toxicity | relatively poor T1 and T2 lowering effects in the liver | – | – | –
CC(C)c1cccc(C(C)C)c1NC(=O)CN(CC(=O)[O-])CC(=O)O.CC(C)c1cccc(C(C)C)c1NC(=O)CN(CC(=O)[O-])CC(=O)O.O.[Mn+2] [Example 1] | – | – | – | approximately 0.1 % w/v | 0.107 | 0.007
